Literature values as cited in patent US10653683B2, “Tiotropium inhalation solution for nebulization” (GLENMARK SPECIALTY S.A., priority 2016, dated 2020).

What was measured:
[1] = relative to histamine

For `C[N+]1(C)C2CC(OC(=O)C(O)(c3cccs3)c3cccs3)CC1C1OC12` (stereo not drawn) [Tiotropium bromide monohydrate, (1α, 2ß, 4ß, 5α, 7ß)-7-[(hydroxydi-2-thienylacetyl)oxy]-9,9-dimethyl-3-oxa-9-azoniatricyclo [3.3.1.02, 4] nonane bromide monohydrate], the Solubility in methanol (methanol) is given as “soluble” and the Solubility in water (water) is given as “sparingly soluble”.

For benzalkonium chloride, the “Bronchoconstrictor properties, times less potent than histamine” value [1] is given as 7.4 times.
